From publication PMC4627231, “Targeting the sugar metabolism of tumors with a first-in-class 6-phosphofructo-2-kinase (PFKFB4) inhibitor” (Oncotarget, 2015)

Legend:
[1] = test system: H460 cells; assay: Cell cycle analysis by flow cytometry (PI); assay type: cell-based, human; settings: 10μM 5MPN
Protocol: To measure apoptosis, cells were stained with annexin V and propidium iodide and examined as previously described. For cell cycle experiments, cells were detached, washed with cold PBS and fixed in 70% ethanol at 4°C for 30 minutes. The cells then were pelleted by centrifugation, resuspended in PBS containing PI and RNase A, incubated at 37°C in the dark for 30 minutes and analyzed by flow cytometry (BD FACSCalibur). Data were analyzed using FlowJo software (TREE STAR Inc.). Results were calculated as the mean ± SD of three experiments and data shown are representative of three independent experiments.

[2] = Pharmacokinetic profile after IV and oral administration; assay type: in vivo; settings: mouse, female C57BL/6 mice, plasma
Protocol: The pharmacokinetic profile was determined in female C57BL/6 mice (Charles River Laboratories) following IV and oral administration of 5MPN. Using only female mice lowered the animal numbers required for meaningful results without issues of potential gender differences in exposure. Eight time points (n=3 per time point) were used to determine indicated PK parameters calculated using WinNonLin v5.0. Plasma samples were extracted using acetonitrile and analyzed by LC/MS-MS using a PhenomexSynergi Polar-RP 4micron 50×2.0 mm column eluted with a biphasic mobile phase (0.5% formic acid in acetonitrile and water).

[3] = test system: Lewis lung carcinomas (LLC); assay: Lewis lung carcinoma tumor growth in syngeneic mice; assay type: in vivo, C57BL/6 mice; settings: 120 mg/kg daily by gavage
Protocol: For xenograft studies, LLC or H460 cells collected from exponential growth phase culture were washed and resuspended in PBS. Groups of female C57BL/6 mice were injected with LLC cells (n=10 per group, s.c., 1×10^6 cells) and groups of female BALB/c athymic mice (Charles River) were injected with H460 cells (n=10 per group, s.c, 5 × 10^6 cells). Tumor masses were determined in a blinded fashion with Vernier calipers using the formula: mass (mg) = (width, mm)^2 X (length, mm)/2 as previously described. When tumor masses were 150-200 mg, mice were randomized to daily DMSO or 5MPN (in 30% Captisol, 100 μl, by gavage). Tumor measurements and body weights were followed daily. All data are expressed as the mean ± SD of two experiments. Statistical significance was assessed by the two-sample t test (independent variable).

COc1cccc2c(NCCCCCO[N+](=O)[O-])ccnc12 [Compound 5MPN, 5-(n-(8-methoxy-4-quinolyl)amino)pentyl nitrate]
cell cycle arrest [1]: marked G1 arrest
AUC(0-inf) ([2]; iv, 2 mg/kg, I.V.): 114 ng·h/mL
AUC(0-t) ([2]; iv, 2 mg/kg, I.V.): 111 ng·h/mL
C0 ([2]; iv, 2 mg/kg, I.V.): 249 ng/mL
half-life ([2]; iv, 2 mg/kg, I.V.): 0.387 h
Vd ([2]; iv, 2 mg/kg, I.V., read-out: Vss): 8.48 L/kg
MRT ([2]; iv, I.V.): 0.485 h
clearance ([2]; iv, I.V.): 291 mL/min/kg
MRT ([2]; po, 10 mg/kg, P.O): 2.31 h
AUC(0-inf) ([2]; po, P.O): 234 ng·h/mL
AUC(0-t) ([2]; po, P.O): 225 ng·h/mL
Cmax ([2]; po, P.O): 98.7 ng/mL
bioavailability ([2]; po, P.O): 40.9%
half-life ([2]; po, P.O): 1.67 h
tumor growth ([3]; LLC in syngeneic C57BL/6 mice): suppressed the growth
body weight ([3]; LLC-bearing C57BL/6 mice): without affecting body weight
